Several values for one entry are separate records, joined by “and”; a condition that tells them apart may be missing. Identical values can stand only once.
How the values were obtained:
hCA XII = biological target: T1, hCA XII (Homo sapiens, UniProt O43570); assay: Stopped-Flow CO2 hydrase assay, hCA XII; type: biochemical; details: mean from 3 assays, errors ± 5–10%
T1 construct: made in house
Procedure: (§1) An Applied Photophysics stopped-flow instrument has been used for assaying the CA catalysed CO2 hydration activity[47]. […] The CO2 concentrations ranged from 1.7 to 17 mM for the determination of the kinetic parameters and inhibition constants. […] The uncatalysed rates were determined in the same manner and subtracted from the total observed rates. Stock solutions of inhibitor (0.1 mM) were prepared in distilled − deionized water and dilutions up to 0.01 nM were done thereafter with the assay buffer. Inhibitor and enzyme solutions were preincubated together for 15 min at room temperature before assay to allow for the formation of the E − I complex. The inhibition constants were obtained by nonlinear least-squares methods using PRISM 3 and the Cheng − Prusoff equation, as reported earlier[48]^,[49], and represent the mean from at least three different determinations. […] All hCA isoforms were recombinant ones obtained in-house as reported earlier[50].

hCA II = biological target: T2, hCA II (Homo sapiens, UniProt P00918); assay: Stopped-Flow CO2 hydrase assay, hCA II; type: biochemical; details: mean from 3 assays, errors ± 5–10%
T2 construct: made in house
Procedure: as §1

hCA III = biological target: T3, hCA III (Homo sapiens, UniProt P07451); assay: Stopped-Flow CO2 hydrase assay, hCA III; type: biochemical; details: for Selectivity Index (SI) hCA I/hCA III: ratio of KI hCA I to KI hCA III; for Selectivity Index (SI) hCA II/hCA III: ratio of KI hCA II to KI hCA III; for Ki: stopped-flow CO2 hydrase, mean from 3 assays, errors ± 5–10%
T3 construct: made in house
Procedure: as §1

hCA VII = biological target: T4, hCA VII (Homo sapiens, UniProt P43166); assay: Stopped-Flow CO2 hydrase assay, hCA VII; type: biochemical; details: mean from 3 assays, errors ± 5–10%
T4 construct: made in house
Procedure: as §1

hCA VB = biological target: T5, hCA VB (Homo sapiens, UniProt Q9Y2D0); assay: Stopped-Flow CO2 hydrase assay, hCA VB; type: biochemical; details: mean from 3 assays, errors ± 5–10%
T5 construct: made in house
Procedure: as §1

hCA IV = biological target: T6, hCA IV (Homo sapiens, UniProt P22748); assay: Stopped-Flow CO2 hydrase assay, hCA IV; type: biochemical; details: mean from 3 assays, errors ± 5–10%
T6 construct: made in house
Procedure: as §1

hCA I = biological target: T7, hCA I (Homo sapiens, UniProt P00915); assay: Stopped-Flow CO2 hydrase assay, hCA I; type: biochemical; details: mean from 3 assays, errors ± 5–10%
T7 construct: made in house
Procedure: as §1

hCA VA = biological target: T8, hCA VA (Homo sapiens, UniProt P35218); assay: Stopped-Flow CO2 hydrase assay, hCA VA; type: biochemical; details: stopped-flow CO2 hydrase, mean from 3 assays, errors ± 5–10%; read-out: KI hCA VA
T8 construct: made in house
T8 sequence (P35218 39-305): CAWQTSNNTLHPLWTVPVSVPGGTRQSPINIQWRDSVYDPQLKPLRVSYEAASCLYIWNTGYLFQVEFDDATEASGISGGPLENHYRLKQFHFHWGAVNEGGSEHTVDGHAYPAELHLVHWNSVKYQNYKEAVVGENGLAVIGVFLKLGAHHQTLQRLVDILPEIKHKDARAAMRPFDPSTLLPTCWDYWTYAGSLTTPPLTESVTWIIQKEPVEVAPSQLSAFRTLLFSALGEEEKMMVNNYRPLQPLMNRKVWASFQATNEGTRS
Procedure: as §1

T1 sequence (O43570 25-354): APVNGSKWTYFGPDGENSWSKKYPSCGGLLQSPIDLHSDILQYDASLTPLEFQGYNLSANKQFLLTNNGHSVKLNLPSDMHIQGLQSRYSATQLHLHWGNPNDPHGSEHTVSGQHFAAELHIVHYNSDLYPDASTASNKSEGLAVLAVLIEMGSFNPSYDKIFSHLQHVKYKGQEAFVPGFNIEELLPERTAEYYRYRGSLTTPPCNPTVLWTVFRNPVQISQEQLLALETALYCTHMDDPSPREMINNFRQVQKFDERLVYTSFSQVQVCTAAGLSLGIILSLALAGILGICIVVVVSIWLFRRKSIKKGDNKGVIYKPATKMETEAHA
T3 sequence (P07451 whole entry): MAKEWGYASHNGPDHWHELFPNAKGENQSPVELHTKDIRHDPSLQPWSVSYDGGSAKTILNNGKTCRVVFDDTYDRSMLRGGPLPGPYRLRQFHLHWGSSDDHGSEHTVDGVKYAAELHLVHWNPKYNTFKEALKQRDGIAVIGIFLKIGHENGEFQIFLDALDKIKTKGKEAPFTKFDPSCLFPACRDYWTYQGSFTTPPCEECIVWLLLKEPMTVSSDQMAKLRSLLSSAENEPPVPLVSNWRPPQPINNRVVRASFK
T6 sequence (P22748 19-312): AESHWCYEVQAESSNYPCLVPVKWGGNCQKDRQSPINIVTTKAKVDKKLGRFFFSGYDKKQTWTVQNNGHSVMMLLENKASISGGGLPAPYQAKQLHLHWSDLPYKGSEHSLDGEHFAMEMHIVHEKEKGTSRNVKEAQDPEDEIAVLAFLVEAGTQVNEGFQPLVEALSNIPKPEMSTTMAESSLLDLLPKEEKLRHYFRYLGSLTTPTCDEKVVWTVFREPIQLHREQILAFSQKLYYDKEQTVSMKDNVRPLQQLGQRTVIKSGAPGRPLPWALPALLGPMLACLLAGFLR
T7 sequence (P00915 whole entry): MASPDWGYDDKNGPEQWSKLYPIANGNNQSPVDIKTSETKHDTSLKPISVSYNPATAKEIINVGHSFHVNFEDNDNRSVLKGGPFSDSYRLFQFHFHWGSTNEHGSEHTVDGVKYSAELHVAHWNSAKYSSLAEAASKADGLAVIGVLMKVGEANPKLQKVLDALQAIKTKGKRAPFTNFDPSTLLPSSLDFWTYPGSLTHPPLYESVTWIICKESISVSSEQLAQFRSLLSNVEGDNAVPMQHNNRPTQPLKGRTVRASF
T4 sequence (P43166 whole entry): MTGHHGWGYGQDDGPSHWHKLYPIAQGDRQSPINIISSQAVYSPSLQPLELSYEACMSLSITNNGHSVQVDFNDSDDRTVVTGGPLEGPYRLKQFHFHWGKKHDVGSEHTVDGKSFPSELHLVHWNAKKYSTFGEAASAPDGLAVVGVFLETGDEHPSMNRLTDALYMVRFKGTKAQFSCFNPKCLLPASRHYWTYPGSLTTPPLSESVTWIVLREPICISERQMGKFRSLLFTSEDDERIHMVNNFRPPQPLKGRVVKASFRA
T5 sequence (Q9Y2D0 34-317): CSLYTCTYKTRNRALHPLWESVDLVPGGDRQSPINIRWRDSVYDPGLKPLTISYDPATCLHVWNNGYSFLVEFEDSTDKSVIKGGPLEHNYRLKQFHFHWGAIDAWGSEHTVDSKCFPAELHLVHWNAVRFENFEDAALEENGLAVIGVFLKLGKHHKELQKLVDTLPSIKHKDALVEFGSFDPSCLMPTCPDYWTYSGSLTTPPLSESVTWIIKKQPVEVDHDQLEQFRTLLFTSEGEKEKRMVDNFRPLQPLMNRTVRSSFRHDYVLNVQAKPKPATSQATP

| Compound | Ki (hCA XII) [µM] | Ki (hCA II) [µM] | Selectivity Index (SI) hCA I/hCA III (hCA III) | Selectivity Index (SI) hCA II/hCA III (hCA III) | Ki (hCA III) [µM] | Ki (hCA VII) [µM] | Ki (hCA VB) [µM] | Ki (hCA IV) | Ki (hCA I) [µM] | Ki (hCA VA) [µM] | melting point [°C] |
| --- | --- | --- | --- | --- | --- | --- | --- | --- | --- | --- | --- |
| 3–(4-(3-Fluorophenyl)-1H-1,2,3-triazol-1-yl)propane-1-sulfonamide [Compound 39] | 1.24 | 3.15 | 5.3 | 19.34 and 19.3 | 0.163 | 6.5 | 1.31 | 2.61 µM | 0.862 | 1.57 | – |
| 3–(4-Phenyl-1H-1,2,3-triazol-1-yl)propane-1-sulfonamide [Compound 38] | 1.06 | 0.713 | 1.21 and 1.2 | 1.4 | 0.502 | 0.86 | 1.04 | 0.959 µM | 0.607 | 1.65 | – |
| 4–(4-(3-Fluorophenyl)-1H-1,2,3-triazol-1-yl)butane-1-sulfonamide [Compound 52] | 7.81 | 8.13 | 2.5 | 26.2 | 0.31 | 3.23 | 2.99 | > 10 µM | 0.778 | 1.27 | – |
| NS(=O)(=O)CCCn1cc(COc2ccccc2)nn1 [Compound 27, 3–(4-(Phenoxymethyl)-1H-1,2,3-triazol-1-yl)propane-1-sulfonamide] | 2.69 | 2.72 | 1.16 and 1.2 | 4.2 | 0.654 | 2.7 | 2.89 | 4.72 µM | 0.76 | 3.87 | 254 to 255 |
| CCOC(=O)c1ccc(NC(=O)NCc2cn(CCCS(N)(=O)=O)nn2)cc1 [Compound 34, Ethyl 4–(3-((1–(3-sulfamoylpropyl)-1H-1,2,3-triazol-4-yl)methyl)ureido)benzoate] | 4.9 | 2.5 | > 18.29 | 4.6 | 0.547 | 2.31 | 3.74 | 4.46 µM | > 10 | 2.65 | 239 to 241 |
| NS(=O)(=O)CCCCn1cc(COc2ccccc2)nn1 [Compound 40, 4–(4-(Phenoxymethyl)-1H-1,2,3-triazol-1-yl)butane-1-sulfonamide] | 5.18 | 7.77 | 8.0 | 9.5 | 0.818 | 7.61 | 1.53 | 3.61 µM | 6.54 | 7.78 | 221 to 223 |
| Ethyl 1–(4-sulfamoylbutyl)-1H-1,2,3-triazole-4-carboxylate [Compound 50] | 1.02 | 0.772 | 1.18 and 1.2 | 1.0 | 0.775 | 0.809 | 0.814 | 3.98 µM | 0.916 | 0.911 | – |

The remaining compounds from weak to strong by Ki (hCA XII), led by results:

| Ki (hCA XII) [µM] | Ki (hCA II) [µM] | Selectivity Index (SI) hCA I/hCA III (hCA III) | Selectivity Index (SI) hCA II/hCA III (hCA III) | Ki (hCA III) [µM] | Ki (hCA VII) [µM] | Ki (hCA VB) [µM] | Ki (hCA IV) | Ki (hCA I) [µM] | Ki (hCA VA) [µM] | melting point [°C] | Compound |
| --- | --- | --- | --- | --- | --- | --- | --- | --- | --- | --- | --- |
| 5.82 | – | – | – | – | 5.15 | – | – | > 10 | 8.77 | 282 to 285 | COc1ccc(NC(=O)NCc2cn(CCCCS(N)(=O)=O)nn2)c(C)c1 [Compound 49, 4–(4-((3–(4-Methoxy-2-methylphenyl)ureido)methyl)-1H-1,2,3-triazol-1-yl)butane-1-sulfonamide] |
| 5.03 | 2.97 | – | 3.8 | 0.772 | 4.4 | 1.61 | 6.16 µM | > 10 | 8.7 | 217 to 218 | Cc1ccc(NC(=O)NCc2cn(CCCS(N)(=O)=O)nn2)cc1 [Compound 32, 3–(4-((3-(p-Tolyl)ureido)methyl)-1H-1,2,3-triazol-1-yl)propane-1-sulfonamide] |
| 2.63 | 4.16 | – | 4.2 | 0.989 | 5.41 | 2.09 | 0.875 µM | > 10 | 7.04 | > 300 | NS(=O)(=O)CCCn1cc(CNC(=O)Nc2ccc(C(F)(F)F)cc2)nn1 [Compound 33, 3–(4-((3–(4-(Trifluoromethyl)phenyl)ureido)methyl)-1H-1,2,3-triazol-1-yl)propane-1-sulfonamide] |
| 2.48 | 2.03 | 6.7 | 2.8 | 0.728 | 4.37 | 2.47 | > 10 µM | 4.89 | 1.03 | 261 to 263 | NS(=O)(=O)CCCn1cc(COc2ccc(F)cc2)nn1 [Compound 28, 3–(4-((4-Fluorophenoxy)methyl)-1H-1,2,3-triazol-1-yl)propane-1-sulfonamide] |
| 1.98 | 0.937 | – | 1.19 and 1.2 | 0.786 | 4.48 | 4 | > 10 µM | > 10 | 2.04 | 214 to 215 | COc1cccc(NC(=O)NCc2cn(CCCS(N)(=O)=O)nn2)c1 [Compound 35, 3–(4-((3–(3-Methoxyphenyl)ureido)methyl)-1H-1,2,3-triazol-1-yl)propane-1-sulfonamide] |
| 1.95 | 2.45 | 2.1 | 4.4 | 0.554 | 2.71 | 3.03 | 5.44 µM | 1.16 | 4.81 | 273 to 274 | COc1ccc(OCc2cn(CCCS(N)(=O)=O)nn2)cc1 [Compound 29, 3–(4-((4-Methoxyphenoxy)methyl)-1H-1,2,3-triazol-1-yl)propane-1-sulfonamide] |
| 1.5 | 2.9 | – | 3.5 | 0.826 | 4.57 | 5.87 | 5.94 µM and 5.93 µM | > 10 | 5.7 | 249 to 252 | NS(=O)(=O)CCCn1cc(CNC(=O)Nc2ccc(F)cc2)nn1 [Compound 31, 3–(4-((3–(4-Fluorophenyl)ureido)methyl)-1H-1,2,3-triazol-1-yl)propane-1-sulfonamide] |
| 1.1 | 4.1 | 5.5 | 11.89 and 11.9 | 0.345 | 4.68 | 1.44 | > 10 µM | 1.91 | 2.88 | 270 to 272 | COc1cccc(OCc2cn(CCCS(N)(=O)=O)nn2)c1 [Compound 30, 3–(4-((3-Methoxyphenoxy)methyl)-1H-1,2,3-triazol-1-yl)propane-1-sulfonamide] |

From publication PMC10128460, “Discovery of the first-in-class potent and isoform-selective human carbonic anhydrase III inhibitors” (Journal of Enzyme Inhibition and Medicinal Chemistry, 2023)
